# Measurements from BindingDB's records for doi:10.1021/jm00166a002 (Berlex Laboratories, 1990).
# Biological target: Beta-1 adrenergic receptor (Canis familiaris)
# Experiment: In vitro Beta-1 adrenergic receptor affinity in partially purified membrane fractions from canine cardiac tissue using […] (4.5 nM)
row,IC50 [µM],Structure (SMILES)
1,18,Cc1nccn1-c1ccc(OCCNCC(O)COc2ccc(N(C)S(C)(=O)=O)cc2)cc1 (configuration not stated)
2,21,CN(c1ccc(OCC(O)CNCCOc2ccc(-n3ccnc3)cc2)cc1)S(C)(=O)=O (configuration not stated)
